Test results taken from ChEMBL document CHEMBL3421625, “Discovery and optimization of novel antagonists to the human neurokinin-3 receptor for the treatment of sex-hormone disorders (Part I)” (J Med Chem, 2015).
Converted amounts (≈) assume the structure as drawn.

Columns and labels:
[1] = biological target: Kappa-type opioid receptor (Homo sapiens) (UniProt P41145); experiment: Inhibition of KOR (unknown origin) at 10 uM relative to control
[2] = biological target: Cytochrome P450 3A4 (Homo sapiens, UniProt P08684); experiment: Inhibition of CYP3A4 (unknown origin) by luciferase reporter assay in presence of NADPH regeneration system; type: ADME
[3] = biological target: T1, Cytochrome P450 1A2 (Homo sapiens, UniProt P05177); experiment: Inhibition of CYP1A2 (unknown origin) by luciferase reporter assay in presence of NADPH regeneration system; type: ADME
T1 sequence (P05177 whole entry): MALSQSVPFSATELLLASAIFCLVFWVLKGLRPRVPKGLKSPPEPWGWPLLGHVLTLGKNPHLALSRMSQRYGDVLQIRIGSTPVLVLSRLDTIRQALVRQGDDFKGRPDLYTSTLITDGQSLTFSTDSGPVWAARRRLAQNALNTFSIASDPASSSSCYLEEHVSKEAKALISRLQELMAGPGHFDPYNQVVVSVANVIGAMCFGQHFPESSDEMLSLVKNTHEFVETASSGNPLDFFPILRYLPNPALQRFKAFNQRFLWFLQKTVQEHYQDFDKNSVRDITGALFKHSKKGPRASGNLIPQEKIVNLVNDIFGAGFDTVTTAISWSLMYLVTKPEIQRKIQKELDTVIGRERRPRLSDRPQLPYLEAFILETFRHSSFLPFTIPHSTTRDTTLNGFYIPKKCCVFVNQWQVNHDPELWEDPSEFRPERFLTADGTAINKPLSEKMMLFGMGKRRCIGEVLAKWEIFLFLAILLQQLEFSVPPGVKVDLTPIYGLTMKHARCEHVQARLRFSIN

[4] = Ratio of unbound drug level in brain to plasma in Sprague-Dawley rat at 1 mg/kg, iv measured at 10 mins; details: brain and plasma
[5] = test system: Rattus norvegicus; experiment: Unbound AUC in Sprague-Dawley rat at 1 mg/kg, iv by LC-MS/MS analysis; type: ADME, organism-based; parameters: dose 1 mg/kg, route intravenous; details: in vivo
[6] = biological target: T2, Neuromedin-K receptor (Rattus norvegicus, UniProt P16177)
T2 sequence (P16177 whole entry): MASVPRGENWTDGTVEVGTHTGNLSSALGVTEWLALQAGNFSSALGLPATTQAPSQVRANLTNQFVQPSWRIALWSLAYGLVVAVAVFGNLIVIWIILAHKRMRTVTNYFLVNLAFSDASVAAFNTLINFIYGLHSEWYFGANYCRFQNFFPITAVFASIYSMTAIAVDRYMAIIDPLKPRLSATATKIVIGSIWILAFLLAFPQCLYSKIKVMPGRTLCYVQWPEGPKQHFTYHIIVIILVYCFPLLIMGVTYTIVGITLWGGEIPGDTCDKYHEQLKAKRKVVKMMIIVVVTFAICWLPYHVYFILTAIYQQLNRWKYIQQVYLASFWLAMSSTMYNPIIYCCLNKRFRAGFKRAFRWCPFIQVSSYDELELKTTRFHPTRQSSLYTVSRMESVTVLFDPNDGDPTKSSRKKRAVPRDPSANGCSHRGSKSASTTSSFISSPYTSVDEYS
Description: Displacement of [3H]-SB222200 from rat NK3R after 90 mins by scintillation counting analysis

[7] = biological target: Cytochrome P450 2C9 (Homo sapiens, UniProt P11712); experiment: Inhibition of CYP2C9 (unknown origin) by luciferase reporter assay in presence of NADPH regeneration system; type: ADME
[8] = in vivo; details: Sprague-Dawley, rat, iv, 1 mg/kg
[9] = test system: Rattus norvegicus; experiment: Unbound Cmax in Sprague-Dawley rat at 3 mg/kg, po by LC-MS/MS analysis; type: ADME, organism-based; parameters: dose 3 mg/kg, route oral; details: in vivo
[10] = biological target: Cytochrome P450 2D6 (Homo sapiens, UniProt P10635); experiment: Inhibition of CYP2D6 (unknown origin) by luciferase reporter assay in presence of NADPH regeneration system; type: ADME
[11] = Apparent permeability across basolateral to apical side in human Caco2 cells in presence of 0.1% bovine serum albumin; details: Caco-2
[12] = Fraction unbound in rat brain at 5 uM after 4 hrs by equilibrium dialysis method; type: ADME, tissue-based
[13] = Lipophilicity, log D of the compound at pH 7.4; type: physicochemical; details: buffer, read-out: logD
[14] = Solubility of the compound in PBS buffer at pH 7.4 by shake-flask method; type: physicochemical
[15] = biological target: Cytochrome P450 2C19 (Homo sapiens, UniProt P33261); experiment: Inhibition of CYP2C19 (unknown origin) by luciferase reporter assay in presence of NADPH regeneration system
[16] = biological target: T3, Substance-K receptor (Homo sapiens, UniProt P21452); experiment: Displacement of [125I]-neurokinin A from human NK2R after 90 mins by scintillation counting analysis
T3 sequence (P21452 whole entry): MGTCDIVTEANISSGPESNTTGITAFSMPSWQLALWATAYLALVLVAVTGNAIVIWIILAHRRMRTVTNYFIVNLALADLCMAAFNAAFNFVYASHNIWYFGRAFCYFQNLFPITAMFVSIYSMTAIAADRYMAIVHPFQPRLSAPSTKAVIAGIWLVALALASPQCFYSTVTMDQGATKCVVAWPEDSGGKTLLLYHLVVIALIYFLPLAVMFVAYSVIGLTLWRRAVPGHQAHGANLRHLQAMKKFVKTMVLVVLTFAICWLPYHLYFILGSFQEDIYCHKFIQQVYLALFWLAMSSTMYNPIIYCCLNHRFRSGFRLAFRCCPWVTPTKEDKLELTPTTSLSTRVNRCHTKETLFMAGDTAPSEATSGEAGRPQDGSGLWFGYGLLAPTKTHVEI

[17] = Apparent permeability across apical to basolateral side in human Caco2 cells in presence of 0.1% bovine serum albumin; details: Caco-2
[18] = biological target: T4, NK-3 receptor (Macaca mulatta, UniProt Q2WGM0)
T4 sequence (Q2WGM0 whole entry): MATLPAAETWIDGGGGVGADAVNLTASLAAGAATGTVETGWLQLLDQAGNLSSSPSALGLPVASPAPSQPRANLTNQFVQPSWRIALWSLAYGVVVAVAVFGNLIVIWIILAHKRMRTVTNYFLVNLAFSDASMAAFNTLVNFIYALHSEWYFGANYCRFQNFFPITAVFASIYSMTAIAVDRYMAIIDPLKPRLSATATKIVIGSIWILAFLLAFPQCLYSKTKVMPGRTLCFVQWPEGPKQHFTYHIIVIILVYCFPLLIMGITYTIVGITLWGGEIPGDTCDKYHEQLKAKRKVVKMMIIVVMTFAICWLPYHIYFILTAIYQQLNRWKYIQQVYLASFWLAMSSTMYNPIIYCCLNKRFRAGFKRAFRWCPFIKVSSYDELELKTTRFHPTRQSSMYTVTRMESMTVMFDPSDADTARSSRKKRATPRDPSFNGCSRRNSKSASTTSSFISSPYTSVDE
Description: Displacement of [3H]-SB222200 from monkey NK3R after 90 mins by scintillation counting analysis

[19] = in vivo; details: Sprague-Dawley, rat, po, 3 mg/kg
[20] = biological target: T5, Neuromedin-K receptor (Homo sapiens, UniProt P29371); experiment: biochemical
T5 sequence (P29371 whole entry): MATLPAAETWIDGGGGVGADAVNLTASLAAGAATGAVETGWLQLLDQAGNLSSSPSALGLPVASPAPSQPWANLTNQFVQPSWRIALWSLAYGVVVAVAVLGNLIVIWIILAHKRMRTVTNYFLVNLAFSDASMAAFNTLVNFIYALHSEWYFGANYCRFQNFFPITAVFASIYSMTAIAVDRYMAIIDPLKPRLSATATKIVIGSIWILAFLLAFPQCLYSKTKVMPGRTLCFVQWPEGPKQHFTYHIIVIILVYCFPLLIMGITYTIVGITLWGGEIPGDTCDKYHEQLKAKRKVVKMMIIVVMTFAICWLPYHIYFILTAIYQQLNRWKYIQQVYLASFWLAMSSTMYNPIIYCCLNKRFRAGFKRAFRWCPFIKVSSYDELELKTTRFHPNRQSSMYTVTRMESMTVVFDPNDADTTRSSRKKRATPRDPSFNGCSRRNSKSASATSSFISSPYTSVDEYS
Description: Displacement of [3H]-SB222200 from recombinant human NK3R expressed in CHO cell membranes after 90 mins by scintillation counting analysis

[21] = biological target: Substance-P receptor (Homo sapiens, UniProt P25103)
Description: Displacement of [3H]-Substance P from human NK1R after 90 mins by scintillation counting analysis

[22] = Fraction unbound in rat plasma at 5 uM after 4 hrs by equilibrium dialysis method; type: ADME, cell-free
[23] = Ratio of unbound drug level in brain to plasma in Sprague-Dawley rat at 1 mg/kg, iv measured at 60 mins; details: brain and plasma
[24] = in vivo; details: Sprague-Dawley, rat, iv, 1 mg/kg; remark: listed apart in the source
Description: Volume of distribution at steady state in Sprague-Dawley rat at 1 mg/kg, iv by LC-MS/MS analysis

[25] = biological target: T5, Neuromedin-K receptor
[26] = test system: Rattus norvegicus; experiment: Unbound AUC in Sprague-Dawley rat at 3 mg/kg, po by LC-MS/MS analysis; type: ADME, organism-based; parameters: dose 3 mg/kg, route oral; details: in vivo
[27] = in vivo; details: Sprague-Dawley, rat, po, 3 mg/kg; remark: listed apart in the source
[28] = Total systemic clearance in Sprague-Dawley rat at 1 mg/kg, iv by LC-MS/MS analysis; type: ADME, organism-based; parameters: dose 1 mg/kg, route intravenous; details: in vivo
[29] = Half life in rat liver microsomes; type: ADME
[30] = biological target: Neuropeptide FF receptor 1 (Homo sapiens) (UniProt Q9GZQ6); experiment: Inhibition of NPFF1 (unknown origin) at 10 uM relative to control
[31] = biological target: T6, Gonadotropin-releasing hormone receptor (Homo sapiens) (UniProt P30968); experiment: Inhibition of GnRH-R (unknown origin) at 10 uM relative to control
T6 sequence (whole entry): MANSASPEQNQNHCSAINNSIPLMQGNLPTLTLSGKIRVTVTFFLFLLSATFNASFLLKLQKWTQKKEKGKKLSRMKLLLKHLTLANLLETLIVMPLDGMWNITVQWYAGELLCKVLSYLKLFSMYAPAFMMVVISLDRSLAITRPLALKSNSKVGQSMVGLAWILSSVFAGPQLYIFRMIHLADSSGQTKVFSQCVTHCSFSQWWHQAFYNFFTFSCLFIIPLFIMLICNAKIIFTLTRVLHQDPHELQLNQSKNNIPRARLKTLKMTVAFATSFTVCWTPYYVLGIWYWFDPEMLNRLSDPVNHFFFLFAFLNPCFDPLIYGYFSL

[32] = biological target: Voltage-gated inwardly rectifying potassium channel KCNH2 (Homo sapiens, UniProt Q12809)
Voltage-gated inwardly rectifying potassium channel KCNH2, sequence (Q12809 whole entry): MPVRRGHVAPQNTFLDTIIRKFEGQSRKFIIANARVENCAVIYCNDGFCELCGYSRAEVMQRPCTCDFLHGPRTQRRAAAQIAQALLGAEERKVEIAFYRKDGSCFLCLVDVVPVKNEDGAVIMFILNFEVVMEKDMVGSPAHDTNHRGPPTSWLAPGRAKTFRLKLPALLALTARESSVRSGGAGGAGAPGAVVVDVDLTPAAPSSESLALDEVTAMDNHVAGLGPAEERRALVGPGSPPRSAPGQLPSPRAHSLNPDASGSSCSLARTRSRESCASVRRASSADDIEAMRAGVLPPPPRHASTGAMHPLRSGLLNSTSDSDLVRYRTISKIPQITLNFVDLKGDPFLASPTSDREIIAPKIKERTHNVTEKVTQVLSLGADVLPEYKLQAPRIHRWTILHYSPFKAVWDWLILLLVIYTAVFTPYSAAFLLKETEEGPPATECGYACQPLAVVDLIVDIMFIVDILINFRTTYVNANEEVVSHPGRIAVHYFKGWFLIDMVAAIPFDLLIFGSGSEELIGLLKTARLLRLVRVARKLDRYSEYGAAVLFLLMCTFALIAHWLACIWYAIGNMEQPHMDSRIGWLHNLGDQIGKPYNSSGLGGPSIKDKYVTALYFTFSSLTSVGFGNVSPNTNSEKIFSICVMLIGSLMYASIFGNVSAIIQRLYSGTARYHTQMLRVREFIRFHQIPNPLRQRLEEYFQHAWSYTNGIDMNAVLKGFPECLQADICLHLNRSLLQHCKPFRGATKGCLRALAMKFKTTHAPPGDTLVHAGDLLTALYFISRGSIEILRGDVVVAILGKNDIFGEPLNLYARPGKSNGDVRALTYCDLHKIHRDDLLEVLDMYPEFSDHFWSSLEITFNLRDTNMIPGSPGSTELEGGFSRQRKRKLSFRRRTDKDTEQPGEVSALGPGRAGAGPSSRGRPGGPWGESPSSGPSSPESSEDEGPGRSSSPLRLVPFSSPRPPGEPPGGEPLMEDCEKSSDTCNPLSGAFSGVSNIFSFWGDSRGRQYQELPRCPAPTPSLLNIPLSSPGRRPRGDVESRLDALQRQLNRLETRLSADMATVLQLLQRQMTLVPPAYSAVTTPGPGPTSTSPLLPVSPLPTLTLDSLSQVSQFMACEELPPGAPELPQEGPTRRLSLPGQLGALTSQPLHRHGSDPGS
Description: Inhibition of human ERG expressed in HEK293 cells after 5 mins by patch-clamp assay

Cytochrome P450 2C19, sequence (P33261 whole entry): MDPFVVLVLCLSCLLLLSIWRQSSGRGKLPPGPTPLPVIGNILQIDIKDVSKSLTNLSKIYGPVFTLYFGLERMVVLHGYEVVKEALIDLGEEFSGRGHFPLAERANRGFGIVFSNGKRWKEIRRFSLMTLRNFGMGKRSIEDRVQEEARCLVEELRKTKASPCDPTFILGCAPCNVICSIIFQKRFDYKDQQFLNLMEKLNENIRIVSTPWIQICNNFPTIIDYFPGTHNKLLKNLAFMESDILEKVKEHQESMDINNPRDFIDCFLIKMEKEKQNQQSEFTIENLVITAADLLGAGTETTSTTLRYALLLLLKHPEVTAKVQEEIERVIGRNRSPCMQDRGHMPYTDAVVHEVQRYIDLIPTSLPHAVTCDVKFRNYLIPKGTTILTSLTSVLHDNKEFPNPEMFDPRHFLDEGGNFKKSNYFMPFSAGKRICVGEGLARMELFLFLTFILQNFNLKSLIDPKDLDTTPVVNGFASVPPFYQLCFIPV
Kappa-type opioid receptor (Homo sapiens), sequence (P41145 whole entry): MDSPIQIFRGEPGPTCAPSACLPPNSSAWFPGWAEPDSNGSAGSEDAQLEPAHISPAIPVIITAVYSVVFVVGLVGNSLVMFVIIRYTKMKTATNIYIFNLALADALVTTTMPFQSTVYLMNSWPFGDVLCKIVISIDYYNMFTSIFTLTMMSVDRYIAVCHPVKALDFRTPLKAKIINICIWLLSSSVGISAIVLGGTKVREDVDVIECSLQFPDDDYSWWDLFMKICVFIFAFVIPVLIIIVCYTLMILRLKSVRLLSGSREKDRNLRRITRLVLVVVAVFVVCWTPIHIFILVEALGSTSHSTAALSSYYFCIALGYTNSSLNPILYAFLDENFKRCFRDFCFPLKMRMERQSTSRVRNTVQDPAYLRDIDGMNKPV
Cytochrome P450 2C9, sequence (P11712 whole entry): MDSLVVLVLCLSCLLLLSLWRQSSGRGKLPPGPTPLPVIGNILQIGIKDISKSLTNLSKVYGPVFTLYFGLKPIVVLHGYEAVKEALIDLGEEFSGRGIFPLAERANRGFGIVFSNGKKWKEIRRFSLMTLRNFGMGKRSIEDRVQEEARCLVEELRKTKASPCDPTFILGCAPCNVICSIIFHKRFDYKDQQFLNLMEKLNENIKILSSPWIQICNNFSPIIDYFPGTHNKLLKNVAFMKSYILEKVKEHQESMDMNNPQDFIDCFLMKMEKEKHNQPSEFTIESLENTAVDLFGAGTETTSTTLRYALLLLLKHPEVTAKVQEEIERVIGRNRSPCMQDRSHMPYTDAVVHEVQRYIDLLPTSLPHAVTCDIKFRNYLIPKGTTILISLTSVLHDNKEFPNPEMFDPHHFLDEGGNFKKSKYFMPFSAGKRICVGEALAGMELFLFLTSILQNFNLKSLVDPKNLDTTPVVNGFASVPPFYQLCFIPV
Cytochrome P450 3A4, sequence (P08684 whole entry): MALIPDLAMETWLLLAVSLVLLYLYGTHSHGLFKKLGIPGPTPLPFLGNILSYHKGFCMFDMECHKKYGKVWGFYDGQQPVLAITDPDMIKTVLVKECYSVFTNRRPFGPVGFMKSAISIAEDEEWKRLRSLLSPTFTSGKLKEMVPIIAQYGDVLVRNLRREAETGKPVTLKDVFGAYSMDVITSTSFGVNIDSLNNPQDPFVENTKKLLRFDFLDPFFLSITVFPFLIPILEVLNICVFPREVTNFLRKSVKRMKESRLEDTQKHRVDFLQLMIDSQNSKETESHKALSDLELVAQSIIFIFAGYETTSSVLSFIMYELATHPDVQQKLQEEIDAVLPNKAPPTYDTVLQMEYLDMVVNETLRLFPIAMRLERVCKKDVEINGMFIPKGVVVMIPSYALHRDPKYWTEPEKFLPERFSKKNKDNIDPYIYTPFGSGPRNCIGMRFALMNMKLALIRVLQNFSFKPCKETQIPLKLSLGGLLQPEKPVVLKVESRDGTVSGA
Cytochrome P450 2D6, sequence (P10635 whole entry): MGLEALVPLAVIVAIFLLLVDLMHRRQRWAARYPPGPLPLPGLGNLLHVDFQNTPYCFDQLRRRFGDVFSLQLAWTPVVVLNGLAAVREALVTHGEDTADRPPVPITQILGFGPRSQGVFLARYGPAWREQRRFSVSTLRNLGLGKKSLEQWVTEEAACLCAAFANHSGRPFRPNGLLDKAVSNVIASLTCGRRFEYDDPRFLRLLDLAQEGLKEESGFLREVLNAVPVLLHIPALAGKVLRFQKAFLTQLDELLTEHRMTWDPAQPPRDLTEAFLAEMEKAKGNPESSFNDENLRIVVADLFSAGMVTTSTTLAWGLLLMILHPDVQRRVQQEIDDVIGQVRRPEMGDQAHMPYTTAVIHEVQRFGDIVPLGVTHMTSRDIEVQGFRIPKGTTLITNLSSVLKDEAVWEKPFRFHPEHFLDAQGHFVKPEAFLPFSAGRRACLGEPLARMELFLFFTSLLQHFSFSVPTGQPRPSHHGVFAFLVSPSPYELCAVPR
Substance-P receptor, sequence (P25103 whole entry): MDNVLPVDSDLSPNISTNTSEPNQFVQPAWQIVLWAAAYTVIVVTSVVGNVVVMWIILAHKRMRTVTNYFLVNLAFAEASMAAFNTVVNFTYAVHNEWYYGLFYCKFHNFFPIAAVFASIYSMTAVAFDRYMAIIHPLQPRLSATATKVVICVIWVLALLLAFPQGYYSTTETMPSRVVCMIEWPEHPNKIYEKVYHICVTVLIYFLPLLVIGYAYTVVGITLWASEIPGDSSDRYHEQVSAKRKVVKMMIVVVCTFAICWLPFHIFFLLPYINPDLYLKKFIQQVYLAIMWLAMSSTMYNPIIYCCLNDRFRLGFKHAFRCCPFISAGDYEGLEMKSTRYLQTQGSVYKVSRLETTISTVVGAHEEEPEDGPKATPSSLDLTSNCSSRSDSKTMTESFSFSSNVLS
Neuropeptide FF receptor 1 (Homo sapiens), sequence (Q9GZQ6 whole entry): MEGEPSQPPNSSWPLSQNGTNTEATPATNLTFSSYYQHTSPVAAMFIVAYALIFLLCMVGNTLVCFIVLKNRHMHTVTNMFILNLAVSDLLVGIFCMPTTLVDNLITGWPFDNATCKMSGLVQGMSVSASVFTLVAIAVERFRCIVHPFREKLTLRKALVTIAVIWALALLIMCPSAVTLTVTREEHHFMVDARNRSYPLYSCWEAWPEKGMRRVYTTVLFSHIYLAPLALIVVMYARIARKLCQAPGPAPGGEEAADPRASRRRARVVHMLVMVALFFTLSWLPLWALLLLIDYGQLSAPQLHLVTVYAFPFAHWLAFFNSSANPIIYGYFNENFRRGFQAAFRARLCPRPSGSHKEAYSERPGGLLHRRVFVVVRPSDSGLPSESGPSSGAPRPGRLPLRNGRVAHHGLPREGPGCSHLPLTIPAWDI

Row | Structure (SMILES) | inhibition [1] | IC50 [2] | IC50 [3] | Kp uu at 10 min [4] | fAUC [5] | Ki [6] | IC50 [7] | half-life [8] | fCmax [9] | IC50 [10] | Papp B→A [11] | fraction unbound at 4 h, 5 µM [12] | logD [13] | solubility thermodynamic [14] | IC50 [15] | Ki [16] | Papp A→B [17] | Ki [18] | Ki [20] | IC50 [25] | also measured
1 | CC(C)c1nc(-c2nnc3n2CCN(C(=O)c2ccc(-c4cccs4)cc2)[C@@H]3C)co1 | 41% | 43 µM | 81 µM | 0.2 | 9.3 µM·min | 0.032 µM | 14 µM | 3.5 h | 58.7 nM | 65 µM | 43.8 ×10⁻⁶ cm/s | 0.016 | 3.3 | 119 µM (≈ 51.6 µg/mL) | 22 µM | 10 µM | 46.4 ×10⁻⁶ cm/s | 0.00631 µM | 0.00316 µM | 0.00398 µM | bioavailability [19]: 49%; Ki [21]: 7.94 µM; fraction unbound at 4 h, 5 µM [22]: 0.036; Kp uu at 1 h [23]: 0.2; Vd [24]: 2.6 L/kg; fAUC [26]: 13.6 µM·min; Tmax [27]: 1.13 h; clearance [28]: 8.2 mL/min/kg
2 | N#CC(c1ccccn1)c1ccnc(N2CCN(C(=O)c3ccc(F)cc3)CC2)n1 (stereo not drawn) |  |  | < 5 µM |  |  |  | < 5 µM |  |  | < 5 µM |  |  | 3.4 | 1.3 µM (≈ 0.523 µg/mL) | < 5 µM |  |  |  | 0.076 µM | 0.109 µM | half-life [29]: 0.217 h
3 | Cc1nsc(-c2nnc3n2CCN(C(=O)c2ccc(-c4cccs4)cc2)[C@@H]3C)n1 | 42% |  |  |  |  |  |  |  |  |  |  |  |  |  |  | 12.6 µM |  | 0.00631 µM |  |  | inhibition [30]: 24%; inhibition [31]: 35%; Ki [21]: 12.6 µM
4 | Cc1noc(-c2nnc3n2CCN(C(=O)c2ccc(-c4cccs4)cc2)[C@@H]3C)n1 | 23% | 55 µM | 32 µM | 0.6 | 23.3 µM·min | 0.116 µM | 40 µM | 1.03 h | 272 nM | > 100 µM | 60.4 ×10⁻⁶ cm/s | 0.084 | 2.2 | 185 µM (≈ 75.2 µg/mL) | 54 µM |  | 57.4 ×10⁻⁶ cm/s | 0.0251 µM | 0.0251 µM | 0.0251 µM | bioavailability [19]: 66%; fraction unbound at 4 h, 5 µM [22]: 0.108; Kp uu at 1 h [23]: 0.4; Vd [24]: 1 L/kg; fAUC [26]: 46.3 µM·min; Tmax [27]: 0.583 h; clearance [28]: 11.3 mL/min/kg
5 | C[C@@H]1c2nnc(-c3csc(-c4ccccc4)n3)n2CCN1C(=O)c1ccc(F)cc1 |  | 67 µM | 25 µM |  |  |  | 19 µM |  |  | 54 µM |  |  | 3.4 | 179 µM (≈ 75.1 µg/mL) | 19 µM |  |  |  | 0.0251 µM | 0.0158 µM | 
6 | Cc1nc(-c2nnc3n2CCN(C(=O)c2ccc(-c4cccs4)cc2)C3)cs1 |  | 30 µM | 19 µM |  |  |  | 19 µM |  |  | > 100 µM |  |  | 2.9 | 172 µM (≈ 70.1 µg/mL) | 15 µM |  |  |  | 0.0794 µM | 0.0794 µM | IC50 [32]: 27 µM
